Earlier results on 2 molecules are cited in patent US20140294799A1, “USE OF COMPOSITIONS HAVING A LOW POLYAMINE CONTENT IN THE PREVENTION OR TREATMENT OF ADVERSE EFFECTS LINKED TO CANCER TREATMENT” (NUTRIALYS MEDICAL NUTRITION SA, priority 2011, published 2014).

The structures appear in SMILES notation.

For the series, the system named is skin of irradiated animals. The conditions noted are these: topical application to the skin of irradiated animals.

As to `N=C(N)NCCCCN` [agmatine], the effect on dermatitis entry is reported as “reduce dermatitis”.
As for `NCCCNCCCCNCCCN` [spermine], the effect on alopecia result is reported as “effective in the treatment of alopecia”.
